Source: publication PMC5306062, “Pharmacology and toxicology of the novel investigational agent Cantrixil (TRX-E-002-1)” (Cancer Chemotherapy and Pharmacology, 2016)
Like-named read-outs stand apart in the source and are kept apart here.

Experiments:
[1] = test system: micronucleated polychromatic erythrocytes (PCEs) in bone marrow; test: Bone marrow micronucleus test; assay type: in vivo, ARC(S) Swiss mice; conditions: positive control group
Protocol: The assays were performed in compliance with GLP regulations.
The bone marrow micronucleus test was the in vivo part of the ICH genotoxicity testing battery and was conducted in ARC(S) Swiss mice. Eight groups of mice (10/sex/group) were given an intraperitoneal injection of vehicle (20% w/v SBECD) or Cantrixil at 50, 200 or 400 mg/kg and were killed 24 or 48 h later. Dimethyl-1,2 benzanthracene was used as the positive control. After preparation of the bone marrow cells, the number of micronucleated polychromatic erythrocytes (PCEs) was determined in 4000 PCEs per animal, and the proportion of PCEs in the total erythrocyte population in bone marrow was calculated from the examination of at least 500 erythrocytes as an index of bone marrow toxicity. […] The proportion of PCEs in the total erythrocyte population was decreased in both sexes at the 200 and 400 mg/kg doses at both kill times. TRX-E-002-1 is therefore considered clastogenic in this system at the described concentrations in vivo [the equivalent 200/400 mg/kg dose in a […] is 16.2 mg/kg (600 mg/m^2)/32.4 mg/kg (1200 mg/m^2) in a 60-kg human].

[2] = test system: c-Jun N-terminal kinase; parameters: method as in PMID 27196760; conditions: cited from earlier work
[3] = Rat pharmacokinetics after single intraperitoneal injection of 100 mg/kg; assay type: in vivo, Sprague–Dawley rats
Protocol: The pharmacokinetics of TRX-E-002-1 was evaluated in male female Sprague–Dawley rats following a single intraperitoneal injection of 100 mg/kg TRX-E-002-1 in 20% SBECD vehicle. Absorption was rapid, with C max mean plasma concentrations reached 0.25/1 h after dosing in female/male rats. […] Mean plasma levels decreased to below the limit of quantification by 24 h (not shown). The AUC0−∞ value was 29,537 and 44,702 ng h/mL in female and male rats, respectively (Table 2). High tissue levels were observed 0.5–6 h after dosing, with levels higher than the plasma concentration in pancreas, ovaries, large intestine, skin, kidneys, liver, stomach and adrenal glands (not shown). Treatment of plasma and tissue samples with glucuronidase indicated the presence of low levels of a glucuronide conjugate of TRX-E-002-1 (not shown). Other metabolic pathways have not yet been investigated. […] Parent drug was excreted in the urine and faeces, and high levels of the glucuronide metabolite were found in the faeces.
Tissue concentrations of total drug (parent + glucuronide) were also similar to those in plasma except in liver, where they were 2–3 times higher.

[4] = Second dog pharmacokinetic study, 10 mg/kg intraperitoneal, four dogs; assay type: in vivo, beagle dogs; conditions: dog M + F, 10 mg/kg i.p., second study
Protocol: In beagle dogs, plasma concentrations of unconjugated TRX-E-002-1 at early time points (1–4 h’ post-dose) were 76–93% of the total levels (parent + glucuronide). At 8 h, the plasma concentrations of the glucuronide metabolites were similar to those of parent drug. By 24 h’ post-dose, the concentrations of TRX-E-002-1-glucuronide in plasma and gastrointestinal tissues (except colon) were 2–12 times higher than those of the parent drug. The increased levels of TRX-E-0021-glucuronide relative to those of parent drug at 24 h post-dose may reflect slower elimination of the glucuronide metabolites.

[5] = test system: disseminated ovarian cancer model; test: Disseminated ovarian cancer model, intraperitoneal dosing; assay type: in vivo, mice
Description: In vivo, TRX-E-002-1, formulated in 20% SBECD, was active in a disseminated ovarian cancer model and a recurrent ovarian cancer model in which tumour recurrence is investigated following initial treatment of the OCSC2-inoculated mice with paclitaxel. In both models, TRX-E-002-1 inhibited tumour growth following once daily intraperitoneal administration.
The combination of TRX-E-002-1 and cisplatin was investigated in the murine model of disseminated ovarian cancer.

[6] = Dog 14-day pilot toxicity study with toxicokinetics, intraperitoneal; conditions: dog M + F, Day 1
Protocol: For the dog 14-day pilot study, male and female beagle dogs were dosed once daily with intraperitoneal injections of vehicle (1:2 dilutions of 20% SBECD in 0.9% saline) or Cantrixil (10, 30 or 100 mg/kg) for 14 days. The doses were administered via an implanted catheter.

[7] = test system: mouse lymphoma L5178Y cells; test: In vitro mammalian cell mutation assay, thymidine kinase locus
Protocol: Genotoxicity testing of TRX-E-002-1 was performed in an ICH-compliant test battery (see ICH Guideline S2A), comprising an in vitro bacterial reverse mutation test, an in vitro mammalian cell mutation assay and an in vivo rodent bone marrow micronucleus assay. The assays were performed in compliance with GLP regulations.
The in vitro mammalian cell mutation assay utilised the forward mutation system at the thymidine kinase locus of the mouse lymphoma L5178Y cells using a microtitre cloning technique. TRX-E-002-1 was tested in three experimental conditions: 3-h incubation at 37 °C with and without metabolic activation system (Aroclor-induced rat liver S9 mix), and a 24-h incubation without metabolic activation (i.e. continuous treatment).

[8] = 10 μM SP600125, OCSC2 cells, Western blot
[9] = female rats, 100 mg/kg i.p., plasma

For `Cc1c2ccccc2c(C)c2c1ccc1ccccc12` [Dimethyl-1,2 benzanthracene, reference compound], the “frequency of micronucleated PCEs” value [1] was “statistically significant increase” and the “proportion of PCEs” value [1] was “reduction”.

In the case of `Oc1c2ccccc2c2c3c(cccc13)N=N2` [SP600125], the “TRX-E-002-1-induced phosphorylation of c-Jun” value [2, 8] is given as “inhibited”, the “phosphorylation of ERK” value [2, 8] is given as “without affecting” and the “effect on anti-tumour activity of 0.245 μM TRX-E-002-1” value ([2]; OCSC2 cells) is given as “blocked”.

With `COc1cc(C2COc3c(ccc(O)c3C)C2c2ccc(O)cc2)cc(OC)c1O` (racemic) [TRX-E-002] the AUClast [3, 9] was 29,396 ng h/mL, the C max [3, 9] was 8355 ng/mL and the elimination half-life ([3]; rats, interspecies comparison) was “about 2.5 h”. For the same molecule, the “AUC0−∞” value [4] was 1633 ng·h/mL, the AUClast [4] was 1630 ng·h/mL and the C max [4] was 425 ng/mL. The T max [4] was 2 h, the “T ½” value [4] was 2.6 h and the tumour growth ([5]; 100 mg/kg i.p. once daily in 20% SBECD for 13–14 days) was “significantly inhibited”. The “AUC0−∞” value ([6]; 10 mg/kg i.p.) was 4395 ng·h/mL, the AUClast ([6]; 10 mg/kg i.p.) was 4390 ng·h/mL and the C max ([6]; 10 mg/kg i.p.) was 626 ng/mL. For the same molecule, the T max ([6]; 10 mg/kg i.p.) was 2.0 h, the “T ½” value ([6]; 10 mg/kg i.p.) was 2.6 h and the “AUC0−∞” value ([6]; 30 mg/kg i.p.) was 11,300 ng h/mL. The AUClast ([6]; 30 mg/kg i.p.) was 8770 ng·h/mL, the T max ([6]; 30 mg/kg i.p.) was 2.0 h and the “T ½” value ([6]; 30 mg/kg i.p.) was 2.5 h. For the same molecule, the “AUC0−∞” value ([6]; 100 mg/kg i.p.) was 58,550 ng h/mL, the AUClast ([6]; 100 mg/kg i.p.) was 58,500 ng h/mL and the C max ([6]; 100 mg/kg i.p.) was 6795 ng/mL. For the same molecule, the T max ([6]; 100 mg/kg i.p.) was 1.25 h and the “T ½” value ([6]; 100 mg/kg i.p.) was 2.2 h.

With `O=P1(N(CCCl)CCCl)NCCCO1` (centres unmarked) [cyclophosphamide] the mutant frequency ([7]; positive control, presence of S9) was “expected increases”.

With `COS(C)(=O)=O` [methyl methanesulfonate] the mutant frequency [7] was “expected increases”.

For `N.N.[Cl][Pt][Cl]` [cisplatin, reference compound], the “tumour growth during the 16-day treatment period” value ([5]; TRX-E-002-1 100 mg/kg once daily, cisplatin 5 mg/kg once weekly, or both) was “significantly inhibited” and the “tumour growth during the 5-week post-treatment period” value ([5]; after 16-day treatment, TRX-E-002-1 100 mg/kg once daily, cisplatin 5 mg/kg once weekly, or both) was “decreased”.
